The text below walks through data of US20230190927A1, “ENPP1 INHIBITORS AND METHODS OF MODULATING IMMUNE RESPONSE” (Angarus Therapeutics, Inc., priority 2020, published 2023).

pIC50: −log10 of the molar value. Bounds are passed on as bounds.

The term IC50 denotes the concentration at which inhibition is half-maximal. A word on the pIC50: it is the IC50 on a negative log10 scale, so that one unit is a factor of ten.

Test [1] relates to 4T1 tumor. Kind of test: Tumor-associated dendritic cells in mouse 4T1 tumor model (FACS). Conditions: intratumoral 100 μL of 1 mM compound 1.
Procedure: Seven- to nine-week-old female Balb/c mice (Jackson Laboratories) were inoculated with 1×10^6 4 T1-luciferase tumor cells suspended in 50 μL of PBS into the mammary fat pad. […] Anaesthetized animals were shielded with a 3.2 mm lead shield with a 15×20 mm aperture where the tumor was placed. […] On the next day, the tumor was extracted and incubated in RPMI+ 10% FBS with 20 μg/mL DNase I type IV (Sigma-Aldrich) and 1 mg/mL Collagenase from Clostridium histolyticum (Sigma-Aldrich) at 37° C. for 30 min. […] Cells were stained with Live/Dead fixable near-IR dead cell staining kit (Thermo Fisher Scientific), Fc-blocked for 10 min using TruStain fcX and subsequently antibody-stained with CD11c, CD45, and I-A/I-E (all Biolegend). Cells were analyzed using an SH800S cell sorter (Sony) or an LSR II (BD Biosciences).
Mean±SEM (n=2). **P=0.004 (Student's t test).
Test [2] has as its target T1, purified recombinant mouse ENPP1 (Mus musculus, UniProt P06802).
T1 sequence (P06802 1-906): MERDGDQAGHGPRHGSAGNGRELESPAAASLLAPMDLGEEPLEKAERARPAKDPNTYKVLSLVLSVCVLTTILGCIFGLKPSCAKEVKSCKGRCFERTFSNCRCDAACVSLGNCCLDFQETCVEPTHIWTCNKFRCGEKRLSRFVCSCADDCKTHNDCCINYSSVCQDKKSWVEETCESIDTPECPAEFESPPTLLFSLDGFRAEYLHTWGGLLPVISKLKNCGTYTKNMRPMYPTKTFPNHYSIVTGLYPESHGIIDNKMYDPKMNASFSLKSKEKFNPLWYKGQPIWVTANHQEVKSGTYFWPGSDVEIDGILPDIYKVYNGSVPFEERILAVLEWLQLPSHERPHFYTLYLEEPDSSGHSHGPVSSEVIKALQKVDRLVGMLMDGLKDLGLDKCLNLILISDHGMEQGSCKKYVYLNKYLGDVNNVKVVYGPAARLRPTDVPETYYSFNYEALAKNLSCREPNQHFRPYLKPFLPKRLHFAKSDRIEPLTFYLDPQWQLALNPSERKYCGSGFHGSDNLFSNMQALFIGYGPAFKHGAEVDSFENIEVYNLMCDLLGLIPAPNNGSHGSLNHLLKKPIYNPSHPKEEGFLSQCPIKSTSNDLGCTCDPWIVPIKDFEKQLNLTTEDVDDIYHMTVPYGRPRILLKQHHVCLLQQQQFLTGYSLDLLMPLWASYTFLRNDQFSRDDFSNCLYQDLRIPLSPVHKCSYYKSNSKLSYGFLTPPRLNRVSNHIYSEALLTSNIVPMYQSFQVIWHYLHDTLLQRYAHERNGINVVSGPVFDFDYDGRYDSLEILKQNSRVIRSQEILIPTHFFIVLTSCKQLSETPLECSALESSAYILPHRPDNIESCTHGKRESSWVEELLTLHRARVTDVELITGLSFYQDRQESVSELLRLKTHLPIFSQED
Kind of test: ENPP1 activity assay using TMP-pNP as a substrate. It is filed as biochemical. Conditions: TMP-pNP 2 μM, mouse ENPP1 0.5 nM, pH 7.5, room temperature. As to the method:
Selected compounds of Table 1, Table 2 and other derivatives were prepared and assessed in an ENPP1 activity assay using thymidine monophosphate paranitrophenol (TMP-pNP) as a substrate. Enzyme reactions were prepared with TMP-pNP (2 μM), 5-fold dilutions of ENPP1 inhibitor, and purified recombinant mouse ENPP1 (0.5 nM) in 100 mM Tris, 150 mM NaCl, 2 mM CaCl2, 200 μM ZnCl2, pH 7.5 at room temperature. Reaction progress was monitored by measuring absorbance at 400 nm of paranitrophenolate produced by the reaction for 20 minutes.

Test [3] deals with T1, purified recombinant mouse ENPP1. Description: ENPP1 enzyme activity assay using 32P cGAMP as a substrate (TLC). The format is biochemical. The conditions noted are these: for IC50: 32P-cGAMP 5 μM, mouse ENPP1 20 nM, pH 7.5, room temperature, 5 hours, read-out: IC50 values (cGAMP; μM). As to the method: Compounds were also assessed in an ENPP1 enzyme activity assay using ^32P cGAMP as a substrate. Radiolabeled ^32P cGAMP was synthesized by incubating unlabeled ATP (1 mM) and GTP (1 mM) doped with ^32P-ATP with 2 μM purified recombinant porcine cGAS in 20 mM Tris pH 7.5, 2 mM MgCl2, 100 μg/mL herring testes DNA) overnight at room temperature, and the remaining nucleotide starting materials were degraded with alkaline phosphatase for 4 h at 37° C. The probe ^32P-cGAMP (5 μM) was incubated with purified recombinant mouse ENPP1 (20 nM) or whole cell lysates in 100 mM Tris, 150 mM NaCl, 2 mM CaCl2, 200 μM ZnCl2, pH 7.5 at room temperature for 5 hours. To generate enzyme inhibition curves, 5-fold dilutions of ENPP1 inhibitor were included in the reaction. […] Plates were exposed on a phosphor screen (Molecular Dynamics) and imaged on a Typhoon 9400 and the ^32P signal was quantified using ImageJ.

Test [4] deals with 4T1 tumor. Kind of test: 4T1 tumor model: IR with compound 1, cGAMP and/or anti-CTLA-4, tumor volume and survival. Conditions: 20 Gy IR, single agent intratumorally on day 2, 4 and 7 after IR (100 μL of 100 μM compound 1 or 10 μg cGAMP). It is filed as in vivo, mouse. As to the method:
Tumor volumes were recorded every other day.

Procedure for human CD14+ monocytes: Primary human peripheral blood mononucleocyte cells (PBMCs) were isolated by subjecting enriched buffy coat from whole blood to a Percoll density gradient. CD14^+ monocytes were isolated using CD14^+ MicroBeads (Miltenyi). CD14^+ monocytes were cultured in RMPI supplemented with 2% human serum and 100 U/mL penicillin-streptomycin. […] 24-26 hours following supernatant transfer, total RNA was extracted using Trizol (Thermo Fisher Scientific) and reverse transcribed with Maxima H Minus Reverse Transcriptase (Thermo Fisher Scientific). Real-time RT-PCR was performed in duplicate with AccuPower 2X Greenstar qPCR Master Mix (Bioneer) on a 7900HT Fast Real-Time PCR System (Applied Biosystems). Data were normalized to CD14 expression for each sample. Fold induction was calculated using ΔΔCt.
Supernatant from these cells was transferred to primary CD14^+ human PBMCs. IFNB1 mRNA levels were normalized to CD14 and the fold induction was calculated relative to untreated CD14^+ cells.

On to `COc1cc2ncnc(N3CCC(CCP(=O)(O)O)CC3)c2cc1OC` [Compound 1], for which the “extracellular cGAMP levels” value in the test with human CD14+ monocytes (293T cGAS ENPP1low cells with transient overexpression of ENPP1) was “rescued extracellular cGAMP levels”. Further, in the test on human CD14+ monocytes (supernatant of ENPP1-overexpressing 293T cGAS ENPP1low cells transferred to CD14+ monocytes), the “CD14+ IFNB1 expression” value is listed as “induced CD14^+ IFNB1 expression”. In the test on 4T1 tumor [1] (tumors pretreated with 20 Gy IR), the “tumor associated CD11c+ population” value is reported as “increased the tumor associated CD11c^+ population”. Further, the tumor-associated leukocyte compositions entry in the test with 4T1 tumor [1] (without IR, vs PBS control) is listed as “did not change tumor-associated leukocyte compositions compared to the PBS control”.
As to `O=P(O)(O)CCC1CCN(c2ncnc3cc(O)ccc23)CC1` [Compound 5], the IC50 in test [2] lay in the range of 0.05 to 0.5 µM.
Same read-out and setting: with `COc1cc(OC)c2ncnc(N3CCC(CCP(=O)(O)O)CC3)c2c1` [Compound 7] the figure was 0.05 to 0.5 µM.
With `COc1ccc2c(N3CCC(CCP(=O)(O)O)CC3)ncnc2c1` [Compound 10], the values for the IC50 in test [3] and in test [2] were 0.05 to 0.5 µM and less than 0.005 µM, respectively.
On to `CC(C)Oc1ccc2c(N3CCC(CCP(=O)(O)O)CC3)ncnc2c1` [Compound 11], for which the IC50 in test [2] was more than 5 µM.
For the compound `COc1ccc2c(N3CCC(CCP(=O)(O)O)CC3)nc(C)nc2c1` [Compound 12], the IC50 in test [3] lay in the range of 0.05 to 0.5 µM; in test [2] it was 0.005 to 0.05 µM.
As to `O=P(O)(O)CCC1CCN(c2ncnc3cc4c(cc23)OCCO4)CC1` [Compound 13], the IC50 in test [2] was 0.5 to 5 µM.
For the compound `COc1ccc(OC)c2c(N3CCC(CCP(=O)(O)O)CC3)ncnc12` [Compound 16], the IC50 in test [2] is 0.5 to 5 µM.
As to `COc1ccc2c(N3CCC(CCP(=O)(O)O)CC3)nc(/C=C/c3cccnc3)nc2c1` [Compound 18], the IC50 was 0.05 to 0.5 µM in test [3] and less than 0.005 µM in test [2].
With `COc1ccc2ncnc(N3CCC(CCP(=O)(O)O)CC3)c2c1` [Compound 19], in test [2], the IC50 lay in the range of 0.005 to 0.05 µM.
Same read-out and setting: with `COc1ccc2c(N3CCC(CCP(=O)(O)O)CC3)ncnc2c1OC` [Compound 22] the figure was 0.05 to 0.5 µM; with `O=P(O)(O)CCC1CCN(c2ncnc3ccc(O)cc23)CC1` [Compound 23], 0.5 to 5 µM.
Still for that read-out and setting: with `COc1ccc2c(N3CCC(CCP(=O)(O)O)CC3)ncnc2c1OC` [Compound 25] the figure was 0.005 to 0.05 µM; with `Nc1ccc2c(N3CCC(CCP(=O)(O)O)CC3)ncnc2c1` [Compound 30], 0.05 to 0.5 µM; with `COc1cc2ccnc(N3CCC(CCP(=O)(O)O)CC3)c2cc1OC` [Compound 38], 0.05 to 0.5 µM.
Take `COc1ccc2c(N3CCN(CCP(=O)(O)O)CC3)ncnc2c1` [Compound 42]: the 50% inhibitory concentration (IC50) in test [2] is more than 5 µM.
Same read-out and setting: the value for `COc1cc2ncnc(N3CCC(COP(=O)(O)O)CC3)c2cc1OC` [Compound 60] was 0.05 to 0.5 µM; that for `COc1cc2ncnc(N3CCC(CC(=O)NO)CC3)c2cc1OC` [Compound 61] was 0.5 to 5 µM; that for `COc1cc2ncnc(N3CCC(COP(O)(O)=S)CC3)c2cc1OC` [Compound 67] was 0.005 to 0.05 µM.
The same measure, in the same setting: with `O=P(O)(O)CCC1CCN(c2ncnc3nc[nH]c23)CC1` [Compound 68] the figure was more than 5 µM.
The same measure, in the same setting: with `O=P(O)(O)CCC1CCN(c2ncnc3cccc(F)c23)CC1` [Compound 70] the figure was 0.5 to 5 µM; with `COc1cc2nccc(N3CCC(CCP(=O)(O)O)CC3)c2cc1OC` [Compound 71], 0.05 to 0.5 µM; with `CNC(=O)NCC1CCN(c2ncnc3cc(OC)c(OC)cc23)CC1` [Compound 73], more than 5 µM.
Consider `COc1cc2ncnc(N3CCN(C(=O)CP(=O)(O)O)CC3)c2cc1OC` [Compound 75], for which the IC50 fell in the range of 0.5 to 5 µM in test [3] and 0.05 to 0.5 µM in test [2].
Turning to `COc1cccc2c(N3CCC(CCP(=O)(O)O)CC3)ncnc12` [Compound 76], the pIC50 in test [3] is 7.30 to 8.30. In test [2], the IC50 is less than 0.005 µM.
For `COc1cc2ncnc([C@H]3CC[C@@H](CCP(=O)(O)O)CC3)c2cc1OC` [Compound 81], in test [2], the 50% inhibitory concentration (IC50) was 0.005 to 0.05 µM.
Still for that read-out and setting: the value for `COc1cc2ncnc([C@H]3CC[C@H](CCP(=O)(O)O)CC3)c2cc1OC` [Compound 82] was 0.005 to 0.05 µM; that for `COc1cc2ncnc(N3CCC(CCP(O)(O)=S)CC3)c2cc1OC` [Compound 83] was 0.05 to 0.5 µM.
Regarding `O=P(O)(O)CCC1CCN(c2ncnc3cc(Cl)ccc23)CC1` [Compound 84], the IC50 in test [2] lay within 0.05 to 0.5 µM.
On the same count and under the same terms, with `COc1cccc2c(N3CCC(COP(=O)(O)O)CC3)ncnc12` [Compound 86] the figure was less than 0.005 µM.
Regarding `COc1cc2ncnc(N3CCC(CCB(O)O)CC3)c2cc1OC` [Compound 87], the IC50 in test [2] was 0.05 to 0.5 µM.
On the same count and under the same terms, with `COc1cc2ncnc(N3CCC(CP(=O)(O)O)CC3)c2cc1OC` [Compound 88] the figure was 0.05 to 0.5 µM; with `COc1cccc2c(N3CCC(CCP(O)(O)=S)CC3)ncnc12` [Compound 92], less than 0.005 µM.
Same read-out and setting: the value for `Cc1nccn1-c1cc(N2CCC(CCP(=O)(O)O)CC2)ncn1` [Compound 93] was 0.05 to 0.5 µM; that for `Cc1cnc(C)n1-c1cc(N2CCN(CCP(=O)(O)O)CC2)ncn1` [Compound 103] was 0.05 to 0.5 µM.
Regarding `Nc1nc2c(ncn2[C@@H]2O[C@@H]3COP(=O)(O)O[C@H]4[C@@H](O)[C@H](n5cnc6c(N)ncnc65)O[C@@H]4COP(=O)(O)O[C@@H]2[C@@H]3O)c(=O)[nH]1` [cGAMP, cyclic guanosine monophosphate-adenosine monophosphate], the “tumor shrinkage effect over IR treatment” value with 4T1 tumor [4] is listed as “had no effect over IR treatment”.
